This is an account of results in ChEMBL document CHEMBL1142579, “Antineoplastic agents. 527. Synthesis of 7-deoxynarcistatin, 7-deoxy-trans-dihydronarcistatin, and trans-dihydronarcistatin 1(1)” (J Nat Prod, 2005).

Data set [1] in a line: Aqueous solubility at 25 degC. In kind it is physicochemical. Conditions: water.
Data set [2] relates to P388. The experiment in a line: Cytotoxicity against mouse P388 cells. Conditions: read-out: ED50 (the source's name). In kind it is functional.
In data set [3] the test system is BXPC-3. The experiment in a line: Cytotoxicity against human […] cells. The format is functional.
The test system of data set [4] is MCF7. The experiment in a line: Cytotoxicity against human MCF7 cells. In kind it is functional.
Data set [5] concerns SF-268. The data set is described as follows: Cytotoxicity against human SF-268 cells. In kind it is functional.
The subject of data set [6] is NCI-H460. The data set is described as follows: Cytotoxicity against human NCI-H460 cells. The format is functional.
Data set [7] concerns KM-20L2. The data set is described as follows: Cytotoxicity against human KM20L2 cells. In kind it is functional.
Data set [8] has as its system DU-145. The experiment in a line: Cytotoxicity against human DU145 cells. In kind it is functional.

In brackets after ≈: the same amount, converted by molar mass. A value given as a limit tells only on which side of the number the result lay.

A word on the solubility: it is the concentration that dissolves in the medium under given conditions. One may read the GI50 as the concentration at which growth is held to half of that of the control. Low readings indicate more potent growth inhibition, high ones less potent growth inhibition. The molecule `O=C1N[C@H]2[C@H](O)[C@H](O)[C@@H](O)C[C@@H]2c2cc3c(cc21)OCO3` displayed a solubility in data set [1] of less than 1000 µg/mL. For the same molecule, the EC50 in data set [2] was determined as 0.029 µg/mL (≈ 0.0989 µM). In addition, the GI50 worked out at 0.046 µg/mL (≈ 0.157 µM) in data set [3]; 0.034 µg/mL (≈ 0.116 µM) in data set [4]; 0.059 µg/mL (≈ 0.201 µM) in data set [5]; 0.043 µg/mL (≈ 0.147 µM) in data set [6]; 0.051 µg/mL (≈ 0.174 µM) in data set [7]; 0.04 µg/mL (≈ 0.136 µM) in data set [8].
In the case of `O=C1N[C@H]2[C@H](O)[C@H](O)[C@@H](O)C[C@@H]2c2cc3c(c(O)c21)OCO3`, in data set [1], the solubility is less than 1000 µg/mL. The EC50 in data set [2] was found to be 0.0024 µg/mL (≈ 0.00776 µM). Also, the GI50 in data set [3] turned out to be 0.012 µg/mL (≈ 0.0388 µM); in data set [4], 0.0053 µg/mL (≈ 0.0171 µM); in data set [5] it was 0.02 µg/mL (≈ 0.0647 µM); in data set [6] it was 0.0092 µg/mL (≈ 0.0297 µM); in data set [7], 0.015 µg/mL (≈ 0.0485 µM); in data set [8], 0.0066 µg/mL (≈ 0.0213 µM).
As for `O=C1N[C@@H]2C(=C[C@H](O)[C@@H](O)[C@H]2O)c2cc3c(cc21)OCO3`, the solubility in data set [1] is less than 1000 µg/mL. Further, in data set [2], the EC50 worked out at 0.019 µg/mL (≈ 0.0652 µM). The GI50 in data set [3] amounted to 0.07 µg/mL (≈ 0.24 µM); in data set [4] it was 0.046 µg/mL (≈ 0.158 µM); in data set [5] it was 0.12 µg/mL (≈ 0.412 µM); in data set [6], 0.053 µg/mL (≈ 0.182 µM); in data set [7], 0.084 µg/mL (≈ 0.288 µM); in data set [8] it was 0.051 µg/mL (≈ 0.175 µM).
Take `O=C1N[C@H]2[C@@H]3OP(=O)([O-])O[C@@H]3[C@@H](O)C[C@@H]2c2cc3c(c(O)c21)OCO3.[Na+]`: in data set [1], the solubility was more than 10000 µg/mL. The EC50 in data set [2] stood at 0.88 µg/mL. Besides, the GI50 in data set [3] came to 5.6 µg/mL; in data set [4] it was 4.6 µg/mL; in data set [5] it was 8.8 µg/mL; in data set [6] it was 7.8 µg/mL; in data set [7], 9.6 µg/mL; in data set [8], 5.2 µg/mL.
Consider `O=C1N[C@H]2[C@@H]3OP(=O)([O-])O[C@@H]3[C@@H](O)C[C@@H]2c2cc3c(cc21)OCO3.[K+]`, for which the solubility in data set [1] was more than 5000 µg/mL. Besides, the EC50 in data set [2] was 1.7 µg/mL. Further, the GI50 in data set [3], in data set [4], in data set [5], in data set [6], in data set [7] and in data set [8] was more than 1 µg/mL in each case.
`O=C1N[C@H]2[C@@H]3OP(=O)([O-])O[C@@H]3[C@@H](O)C[C@@H]2c2cc3c(cc21)OCO3.[Na+]`: the solubility in data set [1] was more than 10000 µg/mL. Further, the EC50 in data set [2] came to 1.6 µg/mL. Besides, the GI50 is more than 10 µg/mL in data set [3]; 7.2 µg/mL in data set [4]; more than 10 µg/mL in data set [5]; more than 10 µg/mL in data set [6]; more than 10 µg/mL in data set [7]; more than 10 µg/mL in data set [8].
The molecule `O=C1N[C@H]2[C@@H]3OP(=O)([O-])O[C@@H]3[C@@H](O)C[C@@H]2c2cc3c(cc21)OCO3.[Li+]` registered a solubility in data set [1] of more than 5000 µg/mL. Moreover, the EC50 in data set [2] was 0.39 µg/mL. In addition, the GI50 in data set [3], in data set [4], in data set [5], in data set [6], in data set [7] and in data set [8] was more than 1 µg/mL in each case.
Turning to `O=C1N[C@@H]2C(=C[C@H](O)[C@H]3OP(=O)([O-])O[C@H]32)c2cc3c(cc21)OCO3.[Na+]`, in data set [1], the solubility was more than 190000 µg/mL. In addition, the EC50 in data set [2] worked out at 1.7 µg/mL. In addition, the GI50 amounted to 5.3 µg/mL in data set [3]; 4 µg/mL in data set [4]; 6.3 µg/mL in data set [5]; 4.7 µg/mL in data set [6]; 5.6 µg/mL in data set [7]; 3.9 µg/mL in data set [8].
In data set [1], `O=C1N[C@@H]2C(=C[C@H](O)[C@H]3OP(=O)([O-])O[C@H]32)c2cc3c(cc21)OCO3.[Li+]` displayed a solubility of more than 10000 µg/mL. The EC50 in data set [2] was determined as 0.42 µg/mL. For the same molecule, the GI50 in data set [3], in data set [4], in data set [5], in data set [6], in data set [7] and in data set [8] was more than 1 µg/mL throughout.
`O=C1N[C@H]2[C@@H]3OP(=O)([O-])O[C@@H]3[C@@H](O)C[C@@H]2c2cc3c(c(O)c21)OCO3.[K+]` had a solubility in data set [1] of more than 1000 µg/mL. Further, the EC50 in data set [2] stood at 0.35 µg/mL. Further, the GI50 in data set [3] is more than 1 µg/mL; in data set [4] it was 0.64 µg/mL; in data set [5] it was more than 1 µg/mL; in data set [6] it was more than 1 µg/mL; in data set [7], more than 1 µg/mL; in data set [8] it was 0.54 µg/mL.
In data set [1], `O=C1N[C@H]2[C@@H]3OP(=O)([O-])O[C@@H]3[C@@H](O)C[C@@H]2c2cc3c(c(O)c21)OCO3.[Li+]` registered a solubility of more than 1000 µg/mL. For the same molecule, the EC50 in data set [2] was 0.26 µg/mL. Besides, the GI50 in data set [3], in data set [4], in data set [5], in data set [6], in data set [7] and in data set [8] was more than 1 µg/mL in each case.
`O=C1N[C@@H]2C(=C[C@H](O)[C@H]3OP(=O)([O-])O[C@H]32)c2cc3c(cc21)OCO3.[K+]` registered a solubility in data set [1] of more than 10000 µg/mL. Moreover, the EC50 in data set [2] is 1.4 µg/mL. The GI50 in data set [3], in data set [4], in data set [5], in data set [6], in data set [7] and in data set [8] was more than 1 µg/mL throughout.
